The values that follow come from patent US20250129103A1, “METHODS FOR TREATMENT OF CANCER” (Frontier Medicines Corporation, priority 2022, published 2025).

≈ marks a conversion by molar mass, not a printed value. A value given as a limit tells only on which side of the number the result lay.

A word on the IC50: it is the concentration needed to halve the response being measured.

For data set [1], the target named is KRAS G12C (GMPPNP-loaded) and cRAF (Ras-binding domain) interaction (Homo sapiens (Human), UniProt P01116, C118S/C51S/C80L/G12C). In words: Inhibition of KRAS G12C and cRAF binding (AlphaScreen). Particulars: KRAS G12C loaded with GMPPNP, cRaf RBD, 2 hours preincubation; read-out: Raf-1 RBD K-Ras IC50. The gist of the method: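 GMPPNP-loaded KRAS G12C in 25 mM Hepes pH 7.4, 150 mM NaCl, 5 mM MgCl2, 0.01% Triton X-100, 10 μM GMPPNP, 2% DMSO, preincubated with compound 2 h at room temperature. cRAF RBD plus AlphaScreen beads then added for 60-90 min; signal read at 570 nm.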
For orientation: Bead proximity is the source of the signal in Alpha formats.

Data set [2] addresses KRAS G12C (GMPPNP-loaded) and PI3Ka (Ras-binding domain) interaction (Homo sapiens (Human), UniProt P01116, C118S/C51S/C80L/G12C). The data set can be described thus: Inhibition of KRAS G12C and PI3Ka binding (AlphaScreen). To be noted: KRAS G12C loaded with GMPPNP, PI3Ka RBD, 2 hours preincubation; read-out: PI3K RBD K-Ras IC50. The gist of the method: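 Biotin-AviTag Cys-light KRAS G12C (aa 1-169, C51S/C80L/C118S), GMPPNP-loaded, 1.5 nM, preincubated 2 h with compound, then His-tagged PI3Ka RBD (aa 157-300, 100 nM) plus AlphaScreen beads added for 60-90 min, RT. Buffer Hepes pH 7.4, 10 μM GMPPNP, 2% DMSO; 10-point 1:3 from 50 μM; 4-parameter IC50.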

Data set [3] in a line: Determination of logD (1-octanol / phosphate buffer pH 7.4). Type of data set: physicochemical. To be noted: 1-octanol/phosphate buffer, pH 7.4, pH 7.4, 1-octanol/phosphate buffer; read-out: Log D, pH 7.4. The gist of the method: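 Shake-flask partition between 1-octanol and 100 mM phosphate buffer pH 7.4, each phase presaturated with the other overnight. Tubes shaken 1 h at 800 rpm, room temperature, then centrifuged. Both phases quantified by LCMS and logD calculated from the ratio.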

Data set [4] can be described thus: Determination of kinetic solubility (pH 7.4). The data set is classed as physicochemical. To be noted: phosphate buffer, pH 7.4, aqueous buffer, kinetic from dmso stock, 50 mM phosphate buffer pH 7.4, read-out: Ksol, pH 7.4. Put shortly:
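Sample mixed with 50 mM phosphate buffer, pH 7.4, vortexed, then shaken 2 h at room temperature and centrifuged. Filtrate analysed by HPLC-UV and LC-MS/MS, with solubility read from peak areas against a standard calibration curve.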

KRAS G12C (GMPPNP-loaded) and PI3Ka (Ras-binding domain) interaction, sequence (P01116 other isoform, or with tags, fused parts or gaps G12C/C51S/C80L/C118S): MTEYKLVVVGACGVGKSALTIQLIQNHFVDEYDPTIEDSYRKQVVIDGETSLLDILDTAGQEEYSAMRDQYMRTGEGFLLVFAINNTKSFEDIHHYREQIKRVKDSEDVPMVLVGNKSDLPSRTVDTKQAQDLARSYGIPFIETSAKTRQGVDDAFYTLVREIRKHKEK
KRAS G12C (GMPPNP-loaded) and cRAF (Ras-binding domain) interaction, sequence (P01116 other isoform, or with tags, fused parts or gaps G12C/C51S/C80L/C118S): as above

Consider `Cc1nccc(/C=C/C(=O)N2CCN(c3nc(OC[C@@]45CCCN4C[C@H](F)C5)nc4c(F)c(-c5cccc6ccc(F)c(Cl)c56)ncc34)C[C@@H]2CC#N)n1` [Compound 147], for which the IC50 in data set [1] and in data set [2] was below 10 nM throughout. In data set [3], the logD came out at 3.64. For the same compound, the solubility kinetic at 2 h in data set [4] is 4.93 µg/mL (≈ 6.54 µM).

In the case of `N#CC[C@H]1CN(c2nc(OC[C@@]34CCCN3C[C@H](F)C4)nc3c(F)c(-c4cccc5ccc(F)c(F)c45)ncc23)CCN1C(=O)/C=C/CN1C[C@H]2C[C@@H]1CO2` [Compound 218], the 50% inhibitory concentration (IC50) in data set [1] and in data set [2] was below 10 nM each time. Besides, in data set [3], the logD came to 2.54. Moreover, the solubility kinetic at 2 h in data set [4] was 56.4 µg/mL (≈ 74.6 µM).

In the case of `N#CC[C@H]1CN(c2nc(OC[C@@]34CCCN3C[C@H](F)C4)nc3c(F)c(-c4cccc5cccc(Cl)c45)ncc23)CCN1C(=O)/C=C/CN1CC[C@@H](F)C1` [Compound 96, 2-((S)-4-(7-(8-chloronaphthalen-1-yl)-8-fluoro-2-(((2R,7aS)-2-fluorohexahydro-1H-pyrrolizin-7a-yl)methoxy)pyrido[4,3-d]pyrimidin-4-yl)-1-((E)-4-((R)-3-fluoropyrrolidin-1-yl)but-2-enoyl)piperazin-2-yl)acetonitrile], the half-inhibitory concentration (IC50) in data set [1] and in data set [2] was below 10 nM throughout. Besides, the logD in data set [3] is 2.82. In data set [4], the solubility kinetic at 2 h came to 64.4 µg/mL (≈ 86.5 µM).

Regarding `N#CC[C@H]1CN(c2nc(OC[C@@]34CCCN3C[C@H](F)C4)nc3c(F)c(-c4cccc5cccc(Cl)c45)ncc23)CCN1C(=O)/C=C/CN1C2COCC1C2` [Compound 189], the IC50 in data set [1] and in data set [2] was below 10 nM each time. Further, in data set [3], the logD is 2.96. Besides, the solubility kinetic at 2 h in data set [4] turned out to be 109 µg/mL (≈ 144 µM).

On to `N#CC[C@H]1CN(c2nc(OC[C@@]34CCCN3C[C@H](F)C4)nc3c(F)c(-c4cccc5ccc(F)c(Cl)c45)ncc23)CCN1C(=O)/C=C/CN1CC2(COC2)C1` [Compound 161], for which the IC50 in data set [1] and in data set [2] was below 10 nM throughout. Further, in data set [3], the logD came out at 2.75. Also, in data set [4], the solubility kinetic at 2 h was 87.7 µg/mL (≈ 113 µM).

Turning to `Cc1nsc(/C=C/C(=O)N2CCN(c3nc(OCC45CCCN4CCC5)nc4c(F)c(-c5cccc6ccc(F)c(Cl)c56)ncc34)C[C@@H]2CC#N)n1` [Compound 156], the half-maximal inhibitory concentration (IC50) in data set [1] and in data set [2] was below 10 nM each time. The logD in data set [3] turned out to be 2.78. In data set [4], the solubility kinetic at 2 h was 84.5 µg/mL (≈ 114 µM).

On to `CN1CC[C@@H]1/C=C/C(=O)N1CCN(c2nc(OC[C@@]34CCCN3C[C@H](F)C4)nc3c(F)c(-c4cccc(Cl)c4C4CC4)ncc23)C[C@@H]1CC#N` [Compound 305], for which the half-maximal inhibitory concentration (IC50) in data set [1] and in data set [2] was 10 to 100 nM in each case. Further, the logD in data set [3] came to 2.87. For the same compound, the solubility kinetic at 2 h in data set [4] amounted to 130 µg/mL (≈ 186 µM).

For `CO[C@@H]1CCN(C/C=C/C(=O)N2CCN(c3nc(OC[C@@]45CCCN4C[C@H](F)C5)nc4c(F)c(-c5cccc6ccc(F)c(Cl)c56)ncc34)C[C@@H]2CC#N)C1` [Example 85, 2-((S)-4-(7-(8-chloro-7-fluoronaphthalen-1-yl)-8-fluoro-2-(((2R,7aS)-2-fluorotetrahydro-1H-pyrrolizin-7a(5H)-yl)methoxy)pyrido[4,3-d]pyrimidin-4-yl)-1-((E)-4-((R)-3-methoxypyrrolidin-1-yl)but-2-enoyl)piperazin-2-yl)acetonitrile], the half-maximal inhibitory concentration (IC50) in data set [1] and in data set [2] was below 10 nM each time. Moreover, the logD in data set [3] turned out to be 2.97. The solubility kinetic at 2 h in data set [4] is 85.5 µg/mL (≈ 110 µM).

On to `Cc1cc(/C=C/C(=O)N2CCN(c3nc(OC[C@@]45CCCN4C[C@H](F)C5)nc4c(F)c(-c5cccc(Cl)c5C5CC5)ncc34)C[C@@H]2CC#N)nc(C)n1` [Compound 102, 2-((S)-4-(7-(3-chloro-2-cyclopropylphenyl)-8-fluoro-2-(((2R,7aS)-2-fluorotetrahydro-1H-pyrrolizin-7a(5H)-yl)methoxy)pyrido[4,3-d]pyrimidin-4-yl)-1-((E)-3-(2,6-dimethylpyrimidin-4-yl)acryloyl)piperazin-2-yl)acetonitrile], for which the IC50 in data set [1] and in data set [2] was below 10 nM in each case. The logD in data set [3] worked out at 3.98. The solubility kinetic at 2 h in data set [4] amounted to 12 µg/mL (≈ 16.2 µM).

As to `Cc1cc(/C=C/C(=O)N2CCN(c3nc(OC[C@@]45CCCN4C[C@H](F)C5)nc4c(F)c(-c5cccc6ccc(F)c(Cl)c56)ncc34)C[C@@H]2CC#N)nc(C)n1` [Example 89, 2-((S)-4-(7-(8-chloro-7-fluoronaphthalen-1-yl)-8-fluoro-2-(((2R,7aS)-2-fluorotetrahydro-1H-pyrrolizin-7a(5H)-yl)methoxy)pyrido[4,3-d]pyrimidin-4-yl)-1-((E)-3-(2,6-dimethylpyrimidin-4-yl)acryloyl)piperazin-2-yl)acetonitrile], the IC50 in data set [1] and in data set [2] was below 10 nM each time. In addition, the logD in data set [3] stood at 3.99. The solubility kinetic at 2 h in data set [4] turned out to be 0.03 µg/mL (≈ 0.0391 µM).

With `CC(C)(C)c1noc(/C=C/C(=O)N2CCN(c3nc(OCC45CCCN4CCC5)nc4c3CCN(c3cccc5cccc(Cl)c35)C4)C[C@@H]2CC#N)n1` [Compound 30], the IC50 in data set [1] and in data set [2] was 10 to 100 nM in each case. Besides, in data set [3], the logD was determined as 3.09. The solubility kinetic at 2 h in data set [4] is 2.33 µg/mL (≈ 3.16 µM).

Consider `N#CC[C@H]1CN(c2nc(OCC34CCCN3CCC4)nc3c2CCN(c2cccc4cccc(Cl)c24)C3)CCN1C(=O)/C=C/CN1CCSCC1` [Compound 171], for which the IC50 in data set [1] and in data set [2] was below 10 nM in each case. Further, the logD in data set [3] was 3.3. Besides, in data set [4], the solubility kinetic at 2 h amounted to 108 µg/mL (≈ 149 µM).

Take `Cc1cc(N)nc(C2Cc3nc(OC[C@@]45CCCN4C[C@H](F)C5)nc(N4CCN(C(=O)/C=C/CN(C)C)[C@@H](CC#N)C4)c3CC2C)c1C(F)(F)F` (some centres unmarked) [Compound 315]: the half-inhibitory concentration (IC50) in data set [1] and in data set [2] was below 10 nM each time. Further, the logD in data set [3] was determined as 2.47. Further, the solubility kinetic at 2 h in data set [4] worked out at 139 µg/mL (≈ 195 µM).

`Cc1noc(/C=C/C(=O)N2CCN(c3nc(OC[C@@]45CCCN4C[C@H](F)C5)nc4c(F)c(-c5cccc6cccc(Cl)c56)ncc34)C[C@@H]2CC#N)n1` [Example 4, 2-((S)-4-(7-(8-chloronaphthalen-1-yl)-8-fluoro-2-(((2R,7aS)-2-fluorotetrahydro-1H-pyrrolizin-7a(5H)-yl)methoxy)pyrido[4,3-d]pyrimidin-4-yl)-1-((E)-3-(3-methyl-1,2,4-oxadiazol-5-yl)acryloyl)piperazin-2-yl)acetonitrile]: the half-inhibitory concentration (IC50) in data set [1] and in data set [2] was 10 to 100 nM in each case. Also, the logD in data set [3] was found to be 3.54. Also, the solubility kinetic at 2 h in data set [4] is 3.98 µg/mL (≈ 5.48 µM).

`CC(C)(C)c1noc(/C=C/C(=O)N2CCN(c3nc(OC[C@@]45CCCN4C[C@H](F)C5)nc4c3CCN(c3cccc5cccc(Cl)c35)C4)C[C@@H]2CC#N)n1` [Compound 31]: the IC50 in data set [1] and in data set [2] was 10 to 100 nM throughout. The logD in data set [3] turned out to be 4.35. The solubility kinetic at 2 h in data set [4] turned out to be 0.01 µg/mL (≈ 0.0133 µM).

As for `N#CC[C@H]1CN(c2nc(OC[C@@]34CCCN3C[C@H](F)C4)nc3c(F)c(-c4cccc5cccc(F)c45)ncc23)CCN1C(=O)/C=C/CN1[C@@H]2CC[C@H]1COC2` [Compound 94, 2-((S)-1-((E)-4-((1R,5S)-3-oxa-8-azabicyclo[3.2.1]octan-8-yl)but-2-enoyl)-4-(8-fluoro-7-(8-fluoronaphthalen-1-yl)-2-(((2R,7aS)-2-fluorotetrahydro-1H-pyrrolizin-7a(5H)-yl)methoxy)pyrido[4,3-d]pyrimidin-4-yl)piperazin-2-yl)acetonitrile], the IC50 in data set [1] and in data set [2] was below 10 nM throughout. Also, the logD in data set [3] stood at 3.11. Moreover, the solubility kinetic at 2 h in data set [4] worked out at 90.2 µg/mL (≈ 120 µM).

For the compound `N#CC[C@H]1CN(c2nc(OCC34CCCN3CCC4)nc3c2CCN(c2cccc4cccc(Cl)c24)C3)CCN1C(=O)/C=C/c1nc(C(F)F)no1` [Compound 19], the IC50 in data set [1] and in data set [2] was below 10 nM throughout. Moreover, in data set [3], the logD was determined as 3.33. For the same compound, the solubility kinetic at 2 h in data set [4] came to 24.4 µg/mL (≈ 33.5 µM).
